For five molecules, IC50 results are on record in BindingDB's records for doi:10.1016/j.bmcl.2010.12.016 (Amira Pharmaceuticals, 2011).

What is called IC50 is the concentration that gives 50% inhibition.

The first experiment can be described thus: Antagonist activity against CRTh2 receptor in human eosinophils assessed as cell shape change by flow cytometry.
Consider `CCN(Cc1cc(-c2ccc(F)cn2)ccc1-c1cc(CC(=O)O)ccc1OC)C(=O)C1CC1` [2-(2'-((N-ethylcyclopropanecarboxamido)methyl)-4'-(5-fluoropyridin-2-yl)-6-methoxybiphenyl-3-yl)acetic acid], for which the 50% inhibitory concentration (IC50) stood at 23 nM.
Still for that read-out and setting: as for `CCOc1ccc(-c2ccc(-c3cc(CC(=O)O)ccc3OC)c(CN(CC)C(=O)C3CC3)c2)cn1` [Sodium [2'-[(cyclopropanecarbonyl-ethyl-amino)-methyl]-4'-(6-ethoxy-pyridin-3-yl)-6-methoxy-biphenyl-3-yl]-acetate], the figure is 5 nM.
Same read-out and setting: as for `CCN(Cc1cc(-c2ncc(OC)cn2)ccc1-c1cc(CC(=O)O)ccc1OC)C(=O)C1CC1` [2-(2'-((N-ethylcyclopropanecarboxamido)methyl)-6-methoxy-4'-(5-methoxypyrimidin-2-yl)biphenyl-3-yl)acetic acid], the figure is 18 nM.
Turning to `CCN(Cc1cc(-c2cnc3ccccc3c2)ccc1-c1cc(CC(=O)O)ccc1OC)C(=O)C1CC1` [2-(2'-((N-ethylcyclopropanecarboxamido)methyl)-6-methoxy-4'-(quinolin-3-yl)biphenyl-3-yl)acetic acid], the half-inhibitory concentration (IC50) is 12 nM.
Still for that read-out and setting: as for `CCN(Cc1cc(-c2cnn(C)c2)ccc1-c1cc(CC(=O)O)ccc1OC)C(=O)C1CC1` [2-(2'-((N-ethylcyclopropanecarboxamido)methyl)-6-methoxy-4'-(1-methyl-1H-pyrazol-4-yl)biphenyl-3-yl)acetic acid], the figure is 4 nM.

Another experiment is described as follows: Antagonist activity against CRTh2 receptor in human eosinophils assessed as cell shape change after 4 hrs by flow cytometry. (In general: Flow cytometry measures light scatter and fluorescence of single cells or particles in a stream.)
Consider `CCOc1ccc(-c2ccc(-c3cc(CC(=O)O)ccc3OC)c(CN(CC)C(=O)C3CC3)c2)cn1` [Sodium [2'-[(cyclopropanecarbonyl-ethyl-amino)-methyl]-4'-(6-ethoxy-pyridin-3-yl)-6-methoxy-biphenyl-3-yl]-acetate], for which the IC50 worked out at 1.7 nM.
